“And” between values parts separate entries of the source, which are not always exact repeats. Identical values can stand only once.
Assays:
[1] = test system: PSA; test: Example 8: PSA response; type: in vivo, human
From the text: Eligible men were aged ≥18 years with a histologically confirmed diagnosis of prostate adenocarcinoma, and were candidates for ADT for the management of hormone-sensitive prostate cancer with one of the following clinical disease states: advanced localized disease not suitable for primary surgical or radiation therapy; evidence of PSA biochemical or clinical relapse following primary surgery or radiation therapy of curative intent; or newly diagnosed metastatic disease that was asymptomatic and without visceral involvement. Additional inclusion criteria at screening included: eugonadal serum testosterone >150 ng/dl (5.2 nmol/L); serum PSA concentration >2 ng/ml (or, when applicable, >0.2 ng/ml following radical prostatectomy or >2 ng/mL above the post-radiotherapy nadir following radiotherapy); body mass index ≥18.0 at screening and/or baseline (i.e., the subject's BMI prior to treatment commencing); and Eastern Cooperative Oncology Group (ECOG) performance status of 0 or 1. Patients with advanced, localized MON1 or M1 disease with clinically significant symptoms or visceral involvement, who required immediate GnRH therapy, chemotherapy, or radiation therapy were not eligible for the trial.
PSA levels were measured at each visit.

[2] = test system: LH; test: Example 9: LH; type: in vivo, human
Protocol: Eligible male patients were aged ≥18 years with a histologically confirmed diagnosis of localized, intermediate-risk prostate cancer, for whom 6-month neoadjuvant and adjuvant androgen deprivation therapy (ADT) to external beam radiation therapy (EBRT) was indicated. The criteria for establishing intermediate-risk prostate cancer included the presence of one of the following, without any high-risk feature: T2b-T2c disease, Gleason score 7, or prostate-specific antigen (PSA) 10-20 ng/mL. […] Based on investigator discretion and clinical assessment of the patient's overall medical and disease status, participation was allowed for older patients with high-risk disease (e.g., based on Gleason score or tumor status) who were deemed likely to benefit from 6 months of neoadjuvant/adjuvant ADT.
Both treatment arms received treatment for 24 weeks. […] EBRT began no later than day 1, week 17.
Patients were evaluated every 4 weeks during the treatment period (including day 1, week 25), at end of treatment (defined as week 29), during follow-up (week 33), and at end of study (EOS).
Samples for testosterone, luteinizing hormone (LH), FSH, and PSA concentrations were taken at screening, on day 1 of the first week (additionally days 2 and 4 for testosterone and LH), and on day 1 of weeks 2, 3, 5, 9, 13, 17, 21, 25, 29, 33, and 37 thereafter.

[3] = test system: serum FSH; test: Example 7: serum FSH in healthy men; type: in vivo, human
Protocol: FSH, DHT, and insulin-like growth factor 1 (IGF-1; Parts 3 and 4 only) were measured in a subset of samples. Serum testosterone was assayed using a conventional immunoassay for screening (LLOQ=0.4 nmol/L). A validated LC/MS/MS method, with an LLOQ of 0.173 nmol/L and a ULOQ of 10.425 nmol/L, was used for all subsequent baseline (i.e., the subject's serum hormone levels prior to treatment commencing) and postdose measurements.

[4] = test system: patients with advanced prostate cancer; test: Example 8: quality of life, Aging Male Survey (AMS); type: in vivo, human; details: for AMS total score, mean: Baseline
Protocol: Quality of life (QoL) was assessed throughout the study and the follow-up period. The 25-item Prostate Cancer Module of the European Organization for Research and Treatment of Cancer Quality of Life Questionnaire (EORTC QLQ-PR25), Aging Male Survey (AMS), and core 30-item EORTC Quality of Life Questionnaire (EORTC QLQ-C30) were completed at screening, day 1 of weeks 5, 13, 25, 37, and 49, and, if applicable, at the follow-up visits.

[5] = test system: healthy men; test: Example 7: safety and tolerability in healthy men
Protocol: The 40 mg dose was administered once per day with a single load dose of 360 mg on Day 1 of the 14 days of treatment administration. For the 20 mg dosages, one 20 mg dose was administered with loading doses of 320 mg on Day 1, 240 mg on Day 2, and 160 mg on Day 3, and the other 20 mg dose was administered with loading doses of 320 mg on Day 1 and 160 mg on Day 2. […] The 40 mg dose was administered with loading doses of 320 mg and 160 mg on Days 1 and 2 of treatment, respectively.

[6] = FIG. 22
From the text: Table printed on a drawing sheet, FIG. 22
First reader's note: The rows 'Plasma' and 'Urine' are section headings giving the matrix; the raised marks a and c are printed, but their footnotes are not on the sheet, and the meaning of the values in brackets is not stated.)

[7] = FIG. 20

Structure (SMILES): CONC(=O)Nc1ccc(-c2sc3c(c2CN(C)C)c(=O)n(-c2ccc(OC)nn2)c(=O)n3Cc2c(F)cccc2F)cc1 [Compound 1, N-(4-(1-(2,6-difluorobenzyl)-5-((dimethylamino)methyl)-3-(6-methoxy-3-pyridazinyl)-2,4-dioxo-1,2,3,4-tetrahydrothieno[2,3-d]pyrimidin-6-yl)phenyl)-N′-methoxyurea]
- Median time from first dose to PSA nadir ([1]; 80 mg QD): 16.1 Weeks
- Median time from first dose to PSA nadir ([1]; 120 mg QD): 12.3 Weeks
- patients with ≥50% serum PSA reduction ([1]; after 4 weeks of treatment): Eighty-three percent
- patients with ≥90% serum PSA reduction ([1]; after 4 weeks of treatment): Eight percent
- average PSA level ([1]; by Week 13 Day 1 visit): less than 0.4 ng/ml
- average PSA level ([1]; by Week 21 Day 1 visit): less than 0.2 ng/ml
- PSA % responses in most patients ([1]; end of 24 weeks dosing): exceed 90%
- PSA response following initiation of treatment compared with leuprorelin ([1]; in vivo): more rapid
- Median LH ([2]; Baseline): 4.7 mlU/mL
- Median LH ([2]; Week 24): 0.1 mlU/mL
- mean LH level ([2]; Week 25, Day 1): 0.325 IU/L
- Median LH ([2]; Week 28/EOT visit): 3.1 mlU/mL
- Median LH ([2]; Week 32/follow-up): 8.3 mlU/mL
- Median LH ([2]; Week 36/EOS): 10.7 mlU/mL
- time postdose at which mean serum FSH began to decrease ([3]; Part 1 single doses 80-360 mg): 2 h
- time postdose of lowest mean serum FSH ([3]; Part 1 single doses 80-360 mg): 48 h
- mean serum FSH at end of 16 days ([3]; Part 2, 80 mg, baseline 6.07 IU/L): 0.67 IU/L
- mean serum FSH at end of 16 days ([3]; Part 2, 180 mg, baseline 3.88 IU/L): 0.33 IU/L
- AMS total score, mean ([4]; 80 mg QD): 29.8
- AMS total score after treatment, mean percent change from baseline ([4]; 80 mg QD, EOS): 21.9%
- AMS total score after treatment, mean percent change from baseline ([4]; 80 mg QD, EOT): 30.5%
- AMS total score after treatment, mean percent change from baseline ([4]; 80 mg QD, Follow-up): 31.8%
- AMS total score, mean percent change from baseline ([4]; 80 mg QD, W5, D1): 3.9%
- AMS total score, mean percent change from baseline ([4]; 80 mg QD, W13, D1): 14.8%
- AMS total score, mean percent change from baseline ([4]; 80 mg QD, W25, D1): 20.3%
- AMS total score, mean percent change from baseline ([4]; 80 mg QD, W49, D1): 30.1%
- AMS total score, mean ([4]; 120 mg QD): 29.9
- AMS total score after treatment, mean percent change from baseline ([4]; 120 mg QD, EOS): 25.3%
- AMS total score after treatment, mean percent change from baseline ([4]; 120 mg QD, Follow-up): 25.2%
- AMS total score, mean percent change from baseline ([4]; 120 mg QD, W5, D1): 10.9%
- AMS total score, mean percent change from baseline ([4]; 120 mg QD, W13, D1): 17.3%
- AMS total score, mean percent change from baseline ([4]; 120 mg QD, W25, D1): 20.4%
- AMS total score, mean percent change from baseline ([4]; 120 mg QD, W37, D1): 24.5%
- AMS total score, mean percent change from baseline ([4]; 120 mg QD, W49, D1): 24.4%
- QOL (AMS, EORTC QLQ-PR25 sexual activity) during 12 week recovery ([4]; after discontinuation of 48 weeks of treatment): appeared to improve more in the Compound 1 group than the leuprorelin group
- most common treatment emergent adverse events ([5]; across all dose cohorts): bradycardia, hot flush, and headache
- changes in QT/QTc intervals ([5]; in vivo): consistent with those described in the literature with other medical castration agents
- most common drug-related TEAE ([5]; in vivo): hot flash
- overall safety and tolerability ([5]; single and multiple doses): safe and well tolerated
- deaths, SAEs or severe AEs ([5]; single dose or multiple dose for 14 or 28 days): no deaths, serious adverse events (SAEs), or severe AEs
- transaminases ([5]; without symptoms or changes in total bilirubin): Mild to moderate transaminase elevations
- AUC0-24 (ng•h/mL) [6]: 1358 (53.1) ng•h/mL and 1878 (51.9) ng•h/mL
- CLr (L/h) [6]: 7.29 (13.2) L/h and 7.25 (36.2) L/h and 7.36 (25.9) L/h
- Fe (%) [6]: 0.934 (39.4) % and 2.20 (74.7) % and 2.61 (62.3) % and 3.43 (29.4) %
- CLr (L/h) [7]: 7.57 (13.4) L/h and 8.11 (12.7) L/h and 9.24 (10.0) L/h and 8.64 (10.8) L/h
- Fe (%) [7]: 2.95 (41.5) % and 2.05 (33.4) % and 1.46 (38.7) %
- t1/2(h) [7]: 20.8 (5.2) h and 21.3 (20.0) h and 21.7 (8.9) h

From patent publication US12629370B2, “Treatment of prostate cancer” (Sumitomo Pharma Co., Ltd., priority 2016, dated 2026)
